Laboratory results: patent publication US20240217967A1, “INDOLINE DERIVATIVES AS DDRS INHIBITORS” (CHIESI FARMACEUTICI S.P.A., priority 2021, published 2024)

What was measured:
[1] = target: T1, DDR2 (Homo sapiens, UniProt Q16832); experiment: DDR2 LanthaScreen Europium Kinase Binding assay; details: binding affinity; IC50 converted in Ki using Cheng-Prusoff; read-out: Ki DDR2
T1 sequence (Q16832 22-855): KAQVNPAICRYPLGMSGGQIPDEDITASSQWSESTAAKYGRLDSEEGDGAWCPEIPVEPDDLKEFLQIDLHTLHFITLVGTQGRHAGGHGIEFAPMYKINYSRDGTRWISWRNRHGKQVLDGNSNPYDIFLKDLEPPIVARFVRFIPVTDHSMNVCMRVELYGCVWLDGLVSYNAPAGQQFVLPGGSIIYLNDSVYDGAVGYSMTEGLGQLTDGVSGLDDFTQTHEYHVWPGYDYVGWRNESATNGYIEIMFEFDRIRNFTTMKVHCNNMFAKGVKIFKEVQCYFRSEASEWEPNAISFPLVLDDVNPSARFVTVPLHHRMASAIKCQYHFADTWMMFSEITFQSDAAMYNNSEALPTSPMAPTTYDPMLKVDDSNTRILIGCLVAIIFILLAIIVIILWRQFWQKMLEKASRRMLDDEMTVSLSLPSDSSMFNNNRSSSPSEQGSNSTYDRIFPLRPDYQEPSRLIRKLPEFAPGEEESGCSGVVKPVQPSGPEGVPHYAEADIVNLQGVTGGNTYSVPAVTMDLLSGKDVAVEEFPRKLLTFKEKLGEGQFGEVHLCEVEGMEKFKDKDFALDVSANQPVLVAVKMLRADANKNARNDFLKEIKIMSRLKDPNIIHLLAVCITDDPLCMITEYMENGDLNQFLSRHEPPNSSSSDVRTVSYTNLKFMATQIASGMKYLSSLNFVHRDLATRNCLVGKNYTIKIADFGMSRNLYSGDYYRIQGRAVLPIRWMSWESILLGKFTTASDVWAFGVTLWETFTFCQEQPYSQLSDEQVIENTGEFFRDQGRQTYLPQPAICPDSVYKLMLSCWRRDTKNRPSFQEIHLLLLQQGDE
Description: (§1) DDR1 and DDR2 binding assays were performed using Life Technologies LanthaScreen™ Europium Kinase Binding assay. The compounds were incubated with 5 nM DDR1 (Carna Biosciences) or 5 nM DDR2 (Life Technologies) for 1 hour at room temperature in white 384-well OptiPlate (PerkinElmer), containing 20 nM or 10 nM Kinase Tracer 178 respectively and 2 nM Europium labelled anti-GST antibody (Life Technologies) in assay buffer (50 mM HEPES pH 7.5, 10 mM MgCI2, 1 mM EGTA and 0.01% BRIJ35). The ratio of fluorescence emission 665 nm/615 nm after excitation at 340 nm was obtained using the Tecan Spark 20M plate reader. IC50 values were determined in GraphPad Prism 7.0 software, using 4 parameter model: log(inhibitor) vs. response. IC50 values were converted in Ki using the Cheng-Prusoff equation (Ki=IC50/(1+[Tracer]/Kd).

[2] = target: T2, DDR1 (Homo sapiens, UniProt Q08345); experiment: DDR1 cell based assay (PathHunter U2OS DDR1, collagen II stimulation); details: U2OS-DDR1 cells, bovine Type II Collagen stimulation
Description: The inhibition of DDR1 receptor activation by compounds was evaluated by PathHunter® U2OS DDR1 assay (Eurofins DiscoverX), according to the manufacturer's instructions. Briefly, U2OS-DDR1 cells were seeded in white 384-well plates at a density of 5000 cells/well and incubated for 2 hours at 37° C. and 5% CO2. Cells were then treated with compounds at different concentrations and incubated for 30 minutes, before stimulation with bovine Type II Collagen 20 μg/ml and incubation overnight at 37° C. and 5% CO2. PathHunter Detection Reagents were prepared according to the protocol provided by DiscoverX and 20 μl/well of this mix were added to each well. After incubating the plates for 1 hour at room temperature in the dark, luminescence signal was acquired with a plate reader. Raw data were normalized to vehicle control (0% for normalization) and positive control (100% for normalization; cells treated with 20 μg/ml collagen II) and IC50 parameters were calculated in GraphPad Prism 8.0 software, using sigmoidal dose-response curve fitting with variable slope.

[3] = target: T2, DDR1; experiment: DDR1 LanthaScreen Europium Kinase Binding assay; details: binding affinity; IC50 converted in Ki using Cheng-Prusoff; read-out: Ki DDR1
Description: as §1

T2 sequence (Q08345 19-913): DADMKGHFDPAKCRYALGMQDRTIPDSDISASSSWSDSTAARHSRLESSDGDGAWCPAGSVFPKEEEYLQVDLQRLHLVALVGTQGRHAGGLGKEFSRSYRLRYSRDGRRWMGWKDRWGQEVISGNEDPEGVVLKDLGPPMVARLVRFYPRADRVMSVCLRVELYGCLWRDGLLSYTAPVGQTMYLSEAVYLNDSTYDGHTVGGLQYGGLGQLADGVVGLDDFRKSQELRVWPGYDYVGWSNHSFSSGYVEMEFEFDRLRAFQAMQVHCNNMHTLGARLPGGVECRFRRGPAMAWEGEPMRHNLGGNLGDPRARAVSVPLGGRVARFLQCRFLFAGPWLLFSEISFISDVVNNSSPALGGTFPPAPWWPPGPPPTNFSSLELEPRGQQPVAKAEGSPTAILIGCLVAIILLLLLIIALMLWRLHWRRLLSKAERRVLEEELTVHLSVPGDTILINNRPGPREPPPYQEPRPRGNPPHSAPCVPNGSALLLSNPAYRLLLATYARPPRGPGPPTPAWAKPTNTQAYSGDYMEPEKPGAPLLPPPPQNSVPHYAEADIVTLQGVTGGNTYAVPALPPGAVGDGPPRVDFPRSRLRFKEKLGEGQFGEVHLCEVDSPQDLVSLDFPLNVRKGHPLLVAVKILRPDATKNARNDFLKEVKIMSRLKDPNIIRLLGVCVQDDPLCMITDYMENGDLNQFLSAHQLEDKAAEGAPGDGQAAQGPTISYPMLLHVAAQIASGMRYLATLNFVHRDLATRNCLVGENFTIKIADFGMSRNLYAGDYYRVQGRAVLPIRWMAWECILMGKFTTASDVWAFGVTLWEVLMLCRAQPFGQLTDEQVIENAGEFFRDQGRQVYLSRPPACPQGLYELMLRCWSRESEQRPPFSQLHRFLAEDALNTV

SMILES | Ki [1] [nM] | IC50 [2] [nM] | Ki [3] [nM]
CC1CN(Cc2cnc3cnccn23)c2cc(C(=O)Nc3cncc(C(F)(F)F)c3)ccc21 (stereo not drawn) [Example 92, 1-(imidazo[1,2-a]pyrazin-3-ylmethyl)-3-methyl-N-(5-(trifluoromethyl)pyridin-3-yl)indoline-6-carboxamide] | < 25 | 25 to 50 | < 25
Cc1n[nH]c2ncc(CN3CCc4ccc(C(=O)Nc5cc(CN6CC[C@@H](N(C)C)C6)nc(C(F)(F)F)c5)cc43)cc12 [Example 84, (R)-N-(2-((3-(dimethylamino)pyrrolidin-1-yl)methyl)-6-(trifluoromethyl)pyridin-4-yl)-1-((3-methyl-1H-pyrazolo[3,4-b]pyridin-5-yl)methyl)indoline-6-carboxamide] | < 25 | < 25 | < 25
Cc1n[nH]c2ncc(CN3CCc4ccc(C(=O)Nc5cc(CN(C)C)nc(C(F)(F)F)c5)cc43)cc12 [Example 82, N-(2-((dimethylamino)methyl)-6-(trifluoromethyl)pyridin-4-yl)-1-((3-methyl-1H-pyrazolo[3,4-b]pyridin-5-yl)methyl)indoline-6-carboxamide] | < 25 | < 25 | < 25
O=C(Nc1cccc(C(F)(F)F)c1)c1ccc2c(c1)N(Cc1cnc3ccccn13)CC2 [Example 57, 1-(imidazo[1,2-a]pyridin-3-ylmethyl)-N-(3-(trifluoromethyl)phenyl)indoline-6-carboxamide] | 50 to 80 | 25 to 50 | 25 to 50
CCC1CN(Cc2cnc3cnccn23)c2cc(C(=O)Nc3cc(-n4cnc(C)c4)cc(C(F)(F)F)c3)ccc21 (single isomer, unassigned) [Example 64, 3-ethyl-1-(imidazo[1,2-a]pyrazin-3-ylmethyl)-N-(3-(4-methyl-1H-imidazol-1-yl)-5-(trifluoromethyl)phenyl)indoline-6-carboxamide] | < 25 | 25 to 50 | < 25
Cc1n[nH]c2ncc(CN3CCc4ccc(C(=O)Nc5ccc(CN6CCCC6)c(C(F)(F)F)c5)cc43)cc12 [Example 70, 1-((3-methyl-1H-pyrazolo[3,4-b]pyridin-5-yl)methyl)-N-(4-(pyrrolidin-1-ylmethyl)-3-(trifluoromethyl)phenyl)indoline-6-carboxamide] | < 25 | 25 to 50 | < 25
CC(C)(C)c1cc(NC(=O)c2ccc3c(c2)N(Cc2cnc4cnccn24)CC3)on1 [Example 79, N-(3-(tert-butyl)isoxazol-5-yl)-1-(imidazo[1,2-a]pyrazin-3-ylmethyl)indoline-6-carboxamide] | < 25 | 50 to 80 | < 25
Cc1n[nH]c2ncc(CN3CCc4ccc(C(=O)Nc5cc(OCCN6CCCC6)cc(C(F)(F)F)c5)cc43)cc12 [Example 85, 1-((3-methyl-1H-pyrazolo[3,4-b]pyridin-5-yl)methyl)-N-(3-(2-(pyrrolidin-1-yl)ethoxy)-5-(trifluoromethyl)phenyl)indoline-6-carboxamide] | < 25 | < 25 | < 25
O=C(Nc1cccc(OC(F)(F)F)c1)c1ccc2c(c1)N(Cc1cnc3cnccn13)CC2 [Example 43, 1-(imidazo[1,2-a]pyrazin-3-ylmethyl)-N-(3-(trifluoromethoxy)phenyl)indoline-6-carboxamide] | < 25 | 25 to 50 | < 25
O=C(Nc1cc(CN2CCOCC2)cc(C(F)(F)F)c1)c1ccc2c(c1)N(Cc1cnc3cnccn13)CC2 [Example 49, 1-(imidazo[1,2-a]pyrazin-3-ylmethyl)-N-(3-(morpholinomethyl)-5-(trifluoromethyl)phenyl)indoline-6-carboxamide] | < 25 | 50 to 80 | < 25
Cc1cn(-c2cc(NC(=O)c3ccc4c(c3)N(C(=O)c3cnc5cnccn35)CC4C)cc(C(F)(F)F)c2)cn1 (stereo not drawn) [Example 29, 1-(imidazo[1,2-a]pyrazine-3-carbonyl)-3-methyl-N-(3-(4-methyl-1H-imidazol-1-yl)-5-(trifluoromethyl)phenyl)indoline-6-carboxamide] | < 25 | 50 to 80 | < 25
Cc1n[nH]c2ncc(CN3CCc4ccc(C(=O)Nc5cc(C(=O)NCCN(C)C)cc(C(F)(F)F)c5)cc43)cc12 [Example 73, N-(3-((2-(dimethylamino)ethyl)carbamoyl)-5-(trifluoromethyl)phenyl)-1-((3-methyl-1H-pyrazolo[3,4-b]pyridin-5-yl)methyl)indoline-6-carboxamide] | < 25 | < 25 | < 25
Cc1n[nH]c2ncc(CN3CCc4ccc(C(=O)Nc5cc(CN6CCN(C)CC6)nc(C(F)(F)F)c5)cc43)cc12 [Example 81, 1-((3-methyl-1H-pyrazolo[3,4-b]pyridin-5-yl)methyl)-N-(2-((4-methylpiperazin-1-yl)methyl)-6-(trifluoromethyl)pyridin-4-yl)indoline-6-carboxamide] | < 25 | < 25 | < 25
CC(C)(C)c1cc(NC(=O)c2ccc3c(c2)N(Cc2cnc4[nH]ncc4c2)CC3)n(-c2ccccc2)n1 [Example 40, 1-((1H-pyrazolo[3,4-b]pyridin-5-yl)methyl)-N-(3-(tert-butyl)-1-phenyl-1H-pyrazol-5-yl)indoline-6-carboxamide] | < 25 | 25 to 50 | 25 to 50
CC1CN(Cc2cnc3[nH]ncc3c2)c2cc(C(=O)Nc3cccc(C(F)(F)F)c3)ccc21 (racemic) [Example 30, 1-((1H-pyrazolo[3,4-b]pyridin-5-yl)methyl)-3-methyl-N-(3-(trifluoromethyl)phenyl)indoline-6-carboxamide] | < 25 | < 25 | < 25
Cc1n[nH]c2ncc(CN3CCc4ccc(C(=O)Nc5cc(CN6CCN(C)CC6)cc(C(F)(F)F)c5)cc43)cc12 [Example 68, 1-((3-methyl-1H-pyrazolo[3,4-b]pyridin-5-yl)methyl)-N-(3-((4-methylpiperazin-1-yl)methyl)-5-(trifluoromethyl)phenyl)indoline-6-carboxamide] | < 25 | < 25 | < 25
CC1CN(Cc2cnc3[nH]ncc3c2)c2cc(C(=O)Nc3cncc(C(F)(F)F)c3)ccc21 (stereo not drawn) [Example 91, 1-((1H-pyrazolo[3,4-b]pyridin-5-yl)methyl)-3-methyl-N-(5-(trifluoromethyl)pyridin-3-yl)indoline-6-carboxamide] | < 25 | < 25 | < 25
Cc1cn(-c2cc(C(=O)Nc3ccc4c(c3)N(C(=O)c3cnc5cnccn35)CC4)cc(C(F)(F)F)c2)cn1 [Example 20, N-(1-(imidazo[1,2-a]pyrazine-3-carbonyl)indolin-6-yl)-3-(4-methyl-1H-imidazol-1-yl)-5-(trifluoromethyl)benzamide] | < 25 | 25 to 50 | < 25
Cc1n[nH]c2ncc(CN3CCc4ccc(C(=O)Nc5cc(C(C)(C)C)on5)cc43)cc12 [Example 67, N-(5-(tert-butyl)isoxazol-3-yl)-1-((3-methyl-1H-pyrazolo[3,4-b]pyridin-5-yl)methyl)indoline-6-carboxamide] | < 25 | < 25 | < 25
